Measurements as given in patent US20190208782A1, “PROCESSING COMPOSITION FOR C[…] WEEDS” (Arch Chemicals, Inc., priority 2018, published 2019).
In brackets after ≈: the same amount, converted by molar mass.

Columns and labels:
Assay type in all cases: in vivo
[1] = system: Eurasian watermilfoil; assay: Fluroxypyr potassium salt vs ester formulation on Eurasian watermilfoil in small scale aquaria (Example 3); conditions: 24 h exposure, 4 WAT
Description: Materials and Methods: Eurasian watermilfoil was obtained from cultures. Two apical tips approximately 10 cm long were planted into each of 96, plastic containers (473 mL). The containers were filled with potting soil and amended with 2 g/L/soil Osmocote® fertilizer 19-6-12. A layer of sand was placed on top of the sediment in each container to prevent sediment re-suspension in the aquaria. Four containers of potted Eurasian watermilfoil were placed into each of 24 aquaria. Each aquaria was filled to a volume of 45 L and plants allowed to grow approximately 2-3 weeks prior to herbicide treatments or until plants were at or near the water surface. Pre-treatment biomass was harvested from extra aquaria set up with pots for this purpose. Biomass was harvested by cutting aboveground biomass of plants at the soil surface in the three pretreatment aquaria. Harvested plant material was placed into individually labeled paper bags, dried in a force air oven at 50 C for at least 48 h, and then weighed to assess biomass. […]
Each week, aquaria were rated for percent control on a 0-100% scale (0%=no control; 100% complete plant mortality). […] Differences between treatments were analyzed using ANOVA and means separated using a Fisher's Protected LSD test at a p≤0.05 significance level.

[2] = system: water hyacinth; assay: Foliar application of fluroxypyr herbicide on water hyacinth (Example 2); conditions: for Water hyacinth biomass reduction: 6 WAT
Description: Materials and Methods: Water hyacinth was obtained from field locations and cultured outdoors in a 300 gallon tank. Water in the culture tank was amended with 30 mg/L Miracle-Gro® fertilizer (14-8-16) every week to maintain plant growth. Aquashade® was added to the tank in sufficient concentration to darken the water in order to reduce algae growth
Once a sufficient density of water hyacinth had been achieved in the culture tank (plants had covered the water surface), 54-63 rosettes of similar size were harvested and divided so that six to seven rosettes (depending upon size) were placed into each of 9, 100 gallon treatment tanks. The treatment tanks were filled to a depth of 45 cm with water. Water in each treatment tank was amended and maintained in a similar fashion as the culture tank. Plants were allowed to grow approximately 2 weeks or until the water surface in each tank had been covered. Pre-treatment biomass (1 per tank) was harvested using a 0.1 m^2 PVC quadrat. The quadrat was pushed down over the plant mat in each tank and all biomass was harvested within the PVC frame. Biomass from each tank was rinsed, placed in a paper bag, and dried at 50 C to assess biomass.
After the growth period and pre-treatment harvest, plants were treated as a foliar spray using the product and rates outlined in Table 3. Treatments were applied using water as a carrier in a fine foliar spray and a total spray volume of 100 gal/acre. AB Brand Adjuvant (commercially available from Lonza, Inc.) was included in the herbicide solution at a rate of 0.25% v:v.
After treatment, each tank was rated on a scale from 0 (no control) to 100% (complete mortality) control every week for six weeks. At six weeks after treatment the 0.1 m^2 PVC quadrat was used to harvest 1 biomass sample from each tank if living biomass was present. Samples were rinsed, placed into labeled paper bags, and dried at 50 C to determine dry weight biomass. Differences between treatments were analyzed using ANOVA at a p≤0.05 significance level, and if a difference in treatments was detected means were then separated using a Fisher's Protected LSD test.

[3] = system: Elodea (Elodea canadensis); assay: Native plant selectivity screening in aquaria, elodea (Example 6); conditions: static exposure; for Elodea biomass vs untreated reference plants: four WAT
Description: Materials and Methods: The study was conducted in an indoor aquaria facility. Elodea (Elodea canadensis) was obtained from cultures. Two apical tips approximately 10 cm long were planted into each of 48, plastic containers (16 oz. plastic cups). The containers were filled with potting soil and amended with 2 g/L Osmocote® fertilizer 19-6-12. A layer of sand was placed on top of the sediment in each container to prevent sediment re-suspension in the aquaria. Two containers of potted elodea were placed into each of 24 aquaria measuring 11.5 in×11.5 in×24 in. Additionally, sago pondweed (Stuckenia pectinata) tubers were obtained. The tubers were floated in shallow containers filled with water until new sprouts began to grow.
Once sprouted, two tubers were planted into 16 oz containers in a similar fashion as elodea. Two containers of potted sago pondweed were placed into each of the 24 aquaria, so that each aquarium had 4 potted plants (2 pots of each species). Each aquarium was filled to a volume of 45 L and plants allowed to grow approximately 3-4 weeks prior to herbicide treatments or until plants were at or near the water surface. Supplemental lighting was provided using Agrobrite growth lamps on a 12:12 light:dark cycle. After the plants reached the desired level of growth, a liquid formulation of fluroxypyr ester was applied as a concentrated aqueous solution at the concentrations outlined in Table 9. An untreated reference was also included for comparison purposes. All herbicide applications were made using a static exposure and replicated 3 times. […] Water was added to the aquaria as needed to maintain the desired 45 L volume of water.
At four weeks after treatment (WAT), plants were, harvested, sorted to aboveground biomass, dried in a forced air oven at 50 C for at least 48 h, and weighed for biomass determination (g/DW/aquaria). Differences between treatments were analyzed using an ANOVA, and if treatment differences were detected; means were separated using a Tukey's All-Pairwise comparison test. All analyses were conducted at a p≤0.05 significance level. Additionally, regression models were fit to elodea biomass data in order to estimate the EC50 concentration under the current experimental design.

With `CCCCCCC(C)OC(=O)COc1nc(F)c(Cl)c(N)c1Cl` (stereo not drawn) [Fluroxypyr ester, [(4-amino-3,5-dichloro-6-fluoro-2-pyridinyl)oxy]acetic acid, 1-methylheptyl ester] the “Eurasian watermilfoil biomass reduction” value ([1]; 200 ug/L) was 100%, the “Eurasian watermilfoil biomass reduction” value ([1]; 400 ug/L) was 100% and the “Mean percent control ratings of water hyacinth” value (from here on “Mean percent control ratings”) ([2]; 8 oz/acre foliar spray, 1 week after treatment) was 15%. The “Mean percent control ratings” value ([2]; 8 oz/acre foliar spray, 2 weeks after treatment) was 40%, the “Mean percent control ratings” value ([2]; 8 oz/acre foliar spray, 3 weeks after treatment) was 45% and the “Mean percent control ratings” value ([2]; 8 oz/acre foliar spray, 4 weeks after treatment) was 65%. For the same compound, the “Mean percent control ratings” value ([2]; 8 oz/acre foliar spray, 5 weeks after treatment) was 85%, the “Water hyacinth biomass reduction” value ([2]; 8 oz/acre foliar spray) was 90% and the “Mean percent control ratings” value ([2]; 8 oz/acre foliar spray, 6 weeks after treatment) was 85%. For the same compound, the “time of plant death” value ([2]; 16 oz/acre foliar spray) was “approximately 4 WAT”, the “Mean percent control ratings” value ([2]; 16 oz/acre foliar spray, 1 week after treatment) was 35% and the “Mean percent control ratings” value ([2]; 16 oz/acre foliar spray, 2 weeks after treatment) was 45%. For the same compound, the “Mean percent control ratings” value ([2]; 16 oz/acre foliar spray, 3 weeks after treatment) was 65%, the “Mean percent control ratings” value ([2]; 16 oz/acre foliar spray, 4 weeks after treatment) was 85% and the “Mean percent control ratings” value ([2]; 16 oz/acre foliar spray, 5 weeks after treatment) was 95%. The “Water hyacinth biomass reduction” value ([2]; 16 oz/acre foliar spray) was 99%, the “Mean percent control ratings” value ([2]; 16 oz/acre foliar spray, 6 weeks after treatment) was 95% and the “Elodea biomass vs untreated reference plants” value ([3]; 400 ug/L or higher) was “reduced”. For the same compound, the “Elodea biomass vs untreated reference plants” value ([3]; 50, 100, and 200 ug/L) was “similar”, the EC50 ([3]; Elodea canadensis, 4 WAT, aquaria, read-out: EC50 for elodea (biomass, regression model)) was 0.356 µg/mL (≈ 0.969 µM) and the “herbicide symptoms on elodea” value ([3]; within one WAT, transient in the lower concentration treatments) was “epinastic twisting and bending”.
